Experimental data from patent US11116771B2, “G protein-coupled receptor (GPCR) modulation by imipridones” (Oncoceutics, Inc., priority 2016, dated 2021).
Converted amounts (≈) assume the structure as drawn. “Also recorded” adds a separate entry of the source. Read-outs that look alike come from different tables or passages of the source. Values belong to the compound of their own block, whether it stands above or below them.

Experiments:
[1] = tested on: MV411 AML cells; experiment: Cell viability, MV411 AML cells; type: cell-based
[2] = tested on: MV411 AML xenograft; experiment: MV411 AML xenograft model; type: in vivo, athymic nude mice; conditions: oral weekly administration; ONC212 50 mg/kg, ONC201 at similar doses (FIG. 30A)
[3] = Rat non-GLP oral single dose study; type: in vivo; conditions: in vivo; rat non-GLP oral single dose study; read-out: NOAEL
[4] = tested on: DRD2 (short and long isoforms); experiment: β-arrestin recruitment GPCR reporter assay, DRD2; type: cell-based
[5] = biological target: DRD2L (Homo sapiens, UniProt P14416); experiment: Gaddum/Schild analysis of arrestin recruitment to DRD2L; type: cell-based; conditions: arrestin recruitment / cAMP reporters (FIGS. 5B, 5C, 5F)
[6] = biological target: DRD5 (Homo sapiens, UniProt P21918); experiment: β-arrestin recruitment GPCR reporter assay, DRD5; type: cell-based
[7] = tested on: Staphylococcus aureus ATCC 29213; experiment: MIC by micro-broth dilution, S. aureus ATCC 29213; type: cell-based
[8] = tested on: Staphylococcus aureus ATCC 33591; experiment: MIC by micro-broth dilution, S. aureus ATCC 33591; type: cell-based
[9] = tested on: Staphylococcus aureus ATCC 700699; experiment: MIC by micro-broth dilution, S. aureus ATCC 700699; type: cell-based; conditions: Staphylococcus aureus
[10] = tested on: HCT116, MDA-MB-231, U87; conditions: about 1-5 mg/mL of ONC201, 72 hours
[11] = tested on: prolactin; conditions: advanced solid tumors, ELISA in peripheral blood after ONC201
[12] = biological target: DRD1 (Homo sapiens, UniProt P21728); conditions: arrestin recruitment reporter assay
[13] = biological target: DRD4 (Homo sapiens, UniProt P21917); conditions: arrestin recruitment reporter assay
[14] = tested on: kinome; conditions: in vitro kinase enzymatic activity, ONC201 1 μM (FIG. 5E)
[15] = tested on: nuclear hormone receptors; conditions: ONC201 2 or 20 μM (FIG. 5D)
[16] = biological target: T1, human DRD2 (Homo sapiens, UniProt P14416)
[17] = tested on: control GPCR; conditions: 100 μM ONC201
[18] = biological target: DRD2 alanine-scan mutation library (Homo sapiens, UniProt P14416, A177S)
[19] = biological target: DRD2 alanine-scan mutation library (Homo sapiens, UniProt P14416, E95A)
[20] = biological target: DRD2 alanine-scan mutation library (Homo sapiens, UniProt P14416, I397A)
[21] = biological target: DRD2 alanine-scan mutation library (Homo sapiens, UniProt P14416, L81A)
[22] = biological target: DRD2 alanine-scan mutation library (Homo sapiens, UniProt P14416, T165A)
[23] = biological target: DRD2 alanine-scan mutation library (Homo sapiens, UniProt P14416, V196A)
[24] = biological target: DRD2 alanine-scan mutation library (Homo sapiens, UniProt P14416, V91A)
[25] = biological target: DRD2 alanine-scan mutation library (Homo sapiens, UniProt P14416, Y192A)
[26] = tested on: HCT116, MDA-MB-231, U87; experiment: cells; conditions: Homo sapiens, 72 h, read-out: viability of tumor cells
[27] = in vitro; conditions: human, Cell viability of normal cells, about 1-5 mg/mL of ONC201, 72 hours
[28] = biological target: T1, human DRD2; experiment: cell-based; conditions: HEK-293T, read-out: inhibition of the DRD2 dopamine response
[29] = tested on: human cancer cells; experiment: Viability of human cancer cells at 72 hours post-treatment; type: cell-based; conditions: relative to the potency of ONC201; viability of human cancer cells at 72 hours post-treatment
[30] = tested on: normal cells; experiment: In vitro toxicity to normal cells; type: cell-based; conditions: FIG. 33
[31] = Mouse tolerability (non-GLP oral single dose / MTD study); type: in vivo; conditions: in vivo; mouse; non-GLP oral single dose study / MTD study
Experimental: ONC212 25 mg/kg represents NOAEL in mouse and rat non-GLP oral single dose studies which is also the efficacious dose in mouse xenograft studies. […].
Dual targeting of DRD2/3 and GPR132/91 represents a novel strategy for anti-cancer efficacy without toxicity. […] […]. […] […].

[32] = biological target: DRD3 (Homo sapiens, UniProt P35462); experiment: β-arrestin recruitment GPCR reporter assay, DRD3; type: cell-based
[33] = biological target: T2, GPR132 (Homo sapiens, UniProt Q9UNW8); experiment: β-arrestin recruitment GPCR reporter assay, GPR132; type: cell-based
T2 sequence (Q9UNW8 1-380): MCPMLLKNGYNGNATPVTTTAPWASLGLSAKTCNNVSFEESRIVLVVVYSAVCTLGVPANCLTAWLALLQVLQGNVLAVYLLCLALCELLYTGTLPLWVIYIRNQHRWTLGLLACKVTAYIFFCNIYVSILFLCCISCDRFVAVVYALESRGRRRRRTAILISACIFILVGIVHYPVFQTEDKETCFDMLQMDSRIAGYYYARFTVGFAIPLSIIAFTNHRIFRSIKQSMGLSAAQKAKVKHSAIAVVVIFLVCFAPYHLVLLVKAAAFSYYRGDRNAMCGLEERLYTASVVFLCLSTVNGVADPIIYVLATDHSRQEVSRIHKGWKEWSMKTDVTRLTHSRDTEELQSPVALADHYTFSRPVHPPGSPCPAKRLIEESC

[34] = biological target: GPR91 (Homo sapiens, UniProt Q9BXA5); experiment: β-arrestin recruitment GPCR reporter assay, GPR91; type: cell-based
[35] = biological target: CXCR7 (Homo sapiens, UniProt P25106); experiment: β-arrestin recruitment GPCR reporter assay, CXCR7; type: cell-based
[36] = tested on: GPCRs; experiment: GPCR profiling by arrestin recruitment reporter assay (panel); type: cell-based; conditions: 10 μM

T1 sequence (P14416 whole entry): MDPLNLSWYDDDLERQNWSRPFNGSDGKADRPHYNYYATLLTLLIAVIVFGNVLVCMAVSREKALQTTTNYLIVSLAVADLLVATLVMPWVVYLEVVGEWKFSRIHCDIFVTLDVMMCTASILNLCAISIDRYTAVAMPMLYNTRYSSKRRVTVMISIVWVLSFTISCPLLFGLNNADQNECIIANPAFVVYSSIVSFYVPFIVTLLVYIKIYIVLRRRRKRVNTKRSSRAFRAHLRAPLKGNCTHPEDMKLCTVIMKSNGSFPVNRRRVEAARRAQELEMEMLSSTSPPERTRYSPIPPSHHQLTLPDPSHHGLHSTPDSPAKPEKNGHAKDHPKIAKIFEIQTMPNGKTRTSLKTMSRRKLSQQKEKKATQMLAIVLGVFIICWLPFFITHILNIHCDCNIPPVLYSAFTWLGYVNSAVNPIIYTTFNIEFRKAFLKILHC
Chain of DRD2 alanine-scan mutation library (Homo sapiens, UniProt P14416, Y192A) (P14416 whole entry Y192A): as the sequence (P14416 whole entry) above, with Y192A counted along it
Chain of DRD3 (P35462 whole entry): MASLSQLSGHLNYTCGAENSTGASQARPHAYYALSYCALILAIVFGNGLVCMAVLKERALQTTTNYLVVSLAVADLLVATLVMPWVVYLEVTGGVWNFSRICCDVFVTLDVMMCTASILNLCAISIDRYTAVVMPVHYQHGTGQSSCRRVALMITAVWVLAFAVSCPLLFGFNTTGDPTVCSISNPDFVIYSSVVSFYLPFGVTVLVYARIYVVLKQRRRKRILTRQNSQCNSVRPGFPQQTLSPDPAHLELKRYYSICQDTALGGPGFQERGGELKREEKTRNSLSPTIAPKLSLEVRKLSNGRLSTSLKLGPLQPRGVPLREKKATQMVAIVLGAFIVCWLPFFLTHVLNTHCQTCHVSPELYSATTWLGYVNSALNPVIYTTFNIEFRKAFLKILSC
Chain of DRD2 alanine-scan mutation library (Homo sapiens, UniProt P14416, L81A) (P14416 whole entry L81A): as the sequence (P14416 whole entry) above, with L81A counted along it
Chain of DRD2 alanine-scan mutation library (Homo sapiens, UniProt P14416, A177S) (P14416 whole entry A177S): as the sequence (P14416 whole entry) above, with A177S counted along it
Chain of DRD2 alanine-scan mutation library (Homo sapiens, UniProt P14416, T165A) (P14416 whole entry T165A): as the sequence (P14416 whole entry) above, with T165A counted along it
Chain of DRD5 (P21918 whole entry): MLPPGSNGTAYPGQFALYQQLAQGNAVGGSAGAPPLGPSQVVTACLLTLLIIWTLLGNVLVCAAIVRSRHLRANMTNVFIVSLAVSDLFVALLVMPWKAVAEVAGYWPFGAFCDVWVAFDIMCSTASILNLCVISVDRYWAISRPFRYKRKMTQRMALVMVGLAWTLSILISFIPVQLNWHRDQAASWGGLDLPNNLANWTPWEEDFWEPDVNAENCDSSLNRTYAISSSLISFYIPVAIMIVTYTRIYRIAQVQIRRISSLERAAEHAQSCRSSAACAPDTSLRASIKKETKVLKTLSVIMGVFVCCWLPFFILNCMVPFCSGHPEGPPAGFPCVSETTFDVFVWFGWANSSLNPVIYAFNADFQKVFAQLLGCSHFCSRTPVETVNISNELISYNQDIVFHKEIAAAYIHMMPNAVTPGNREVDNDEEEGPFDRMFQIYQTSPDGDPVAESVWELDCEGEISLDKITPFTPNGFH
Chain of DRD2 alanine-scan mutation library (Homo sapiens, UniProt P14416, V196A) (P14416 whole entry V196A): as the sequence (P14416 whole entry) above, with V196A counted along it
Chain of DRD2 alanine-scan mutation library (Homo sapiens, UniProt P14416, V91A) (P14416 whole entry V91A): as the sequence (P14416 whole entry) above, with V91A counted along it
Chain of DRD2 alanine-scan mutation library (Homo sapiens, UniProt P14416, E95A) (P14416 whole entry E95A): as the sequence (P14416 whole entry) above, with E95A counted along it
Chain of DRD2 alanine-scan mutation library (Homo sapiens, UniProt P14416, I397A) (P14416 whole entry I397A): as the sequence (P14416 whole entry) above, with I397A counted along it
Chain of DRD4 (P21917 whole entry): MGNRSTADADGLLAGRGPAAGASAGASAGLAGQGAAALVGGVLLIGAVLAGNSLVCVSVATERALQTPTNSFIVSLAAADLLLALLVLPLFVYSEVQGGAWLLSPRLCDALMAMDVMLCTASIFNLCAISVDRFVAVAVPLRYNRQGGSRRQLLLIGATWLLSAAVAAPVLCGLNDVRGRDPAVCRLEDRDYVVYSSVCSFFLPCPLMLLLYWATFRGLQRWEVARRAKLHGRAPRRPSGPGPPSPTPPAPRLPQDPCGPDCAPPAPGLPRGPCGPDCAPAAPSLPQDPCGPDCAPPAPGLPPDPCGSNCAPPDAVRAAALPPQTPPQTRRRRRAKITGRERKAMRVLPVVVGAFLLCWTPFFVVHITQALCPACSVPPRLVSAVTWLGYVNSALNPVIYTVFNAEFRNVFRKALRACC
Chain of GPR91 (Q9BXA5 whole entry): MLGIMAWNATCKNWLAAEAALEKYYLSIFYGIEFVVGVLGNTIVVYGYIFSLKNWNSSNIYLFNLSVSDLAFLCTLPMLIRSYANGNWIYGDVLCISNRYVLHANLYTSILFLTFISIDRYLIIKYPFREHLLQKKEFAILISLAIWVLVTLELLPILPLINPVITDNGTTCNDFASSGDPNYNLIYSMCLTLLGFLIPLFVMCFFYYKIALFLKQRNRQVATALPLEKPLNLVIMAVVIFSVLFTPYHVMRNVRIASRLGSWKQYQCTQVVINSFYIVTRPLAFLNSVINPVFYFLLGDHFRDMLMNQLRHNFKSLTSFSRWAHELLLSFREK
Chain of DRD1 (P21728 whole entry): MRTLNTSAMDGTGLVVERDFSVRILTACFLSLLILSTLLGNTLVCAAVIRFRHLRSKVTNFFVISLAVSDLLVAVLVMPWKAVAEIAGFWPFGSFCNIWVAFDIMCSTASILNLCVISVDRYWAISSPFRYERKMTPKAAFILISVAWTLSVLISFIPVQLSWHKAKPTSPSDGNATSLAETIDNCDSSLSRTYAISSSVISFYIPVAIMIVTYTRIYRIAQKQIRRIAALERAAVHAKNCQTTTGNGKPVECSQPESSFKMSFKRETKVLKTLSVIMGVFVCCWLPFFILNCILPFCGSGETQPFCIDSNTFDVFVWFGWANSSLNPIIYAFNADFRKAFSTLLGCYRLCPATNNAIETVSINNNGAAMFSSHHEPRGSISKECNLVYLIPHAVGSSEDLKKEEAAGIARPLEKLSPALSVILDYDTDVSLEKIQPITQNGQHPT
Chain of CXCR7 (P25106 whole entry): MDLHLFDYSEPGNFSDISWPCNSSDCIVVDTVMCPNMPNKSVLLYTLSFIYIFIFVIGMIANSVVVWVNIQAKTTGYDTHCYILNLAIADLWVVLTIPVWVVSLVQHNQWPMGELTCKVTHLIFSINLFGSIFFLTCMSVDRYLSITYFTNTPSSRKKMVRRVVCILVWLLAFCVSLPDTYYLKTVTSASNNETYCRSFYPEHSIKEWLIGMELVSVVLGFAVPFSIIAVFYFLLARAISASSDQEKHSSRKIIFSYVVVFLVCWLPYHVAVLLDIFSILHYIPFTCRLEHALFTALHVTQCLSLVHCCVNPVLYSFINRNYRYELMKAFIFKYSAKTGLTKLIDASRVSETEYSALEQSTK
Chain of DRD2L (P14416 whole entry): as the sequence (P14416 whole entry) above

Compound: Cc1ccccc1CN1C(=O)C2=C(CCN(Cc3ccccc3)C2)N2CCN=C12 [ONC201, 7-benzyl-4-(2-methylbenzyl)-1,2,6,7,8,9-hexahydroimidazo [1,2-a]pyrido [3,4-e]pyrimidin-5(1H)-one]
exposure required for efficacy [1]: 24 to 48 h
leukemia xenograft tumor growth [2]: not efficacious
NOAEL [3]: 225 mg/kg
GPCR activity, DRD2 [4]: selectively antagonizes; also recorded: antagonized
antagonism of DRD2L [5]: direct, competitive antagonism
GPCR activity, DRD5 [6]: no antagonism
MIC ([7]; Staphylococcus aureus, ATCC29213): > 100 µg/mL
MIC99 ([7]; Staphylococcus aureus, ATCC29213, 24 h): > 100 µg/mL
MIC ([7]; Staphylococcus aureus, ATCC29213, 24 h, read-out: MIC95): > 100 µg/mL
MIC ([7]; Staphylococcus aureus, ATCC29213, 24 h, read-out: MIC, Visual): > 100 µg/mL
MIC ([8]; Staphylococcus aureus, ATCC33591): > 100 µg/mL
MIC99 ([8]; Staphylococcus aureus, ATCC33591, 24 h): > 100 µg/mL
MIC ([8]; Staphylococcus aureus, ATCC33591, 24 h, read-out: MIC95): > 100 µg/mL
MIC ([8]; Staphylococcus aureus, ATCC33591, 24 h, read-out: MIC, Visual): > 100 µg/mL
MIC ([9]; ATCC700699): > 100 µg/mL
MIC99 ([9]; ATCC700699, 48 h): > 100 µg/mL
MIC ([9]; ATCC700699, 48 h, read-out: MIC95): > 100 µg/mL
MIC ([9]; ATCC700699, 48 h, read-out: MIC, Visual): > 100 µg/mL
viability of tumor cells [10]: ≤ 50%
patients exhibiting induction of prolactin [11]: 10/11
GPCR activity, DRD1 [12]: no antagonism
GPCR activity, DRD4 [13]: weaker potency
interaction with the kinome [14]: no significant interactions
interaction with nuclear hormone receptors [15]: no significant interactions
inhibition of DRD2 dopamine-induced calcium flux [16]: completely inhibited; also recorded: complete inhibition
effect on calcium flux of control GPCR [17]: no effect
Calcium Flux as a % of flux with WT DRD2 (100), ONC201 100 μM [18]: 77%
Calcium Flux as a % of flux with WT DRD2 (100), ONC201 250 μM [18]: 26%
Calcium Flux as a % of flux with WT DRD2 (100), ONC201 100 μM [19]: 97%
Calcium Flux as a % of flux with WT DRD2 (100), ONC201 250 μM [19]: 39%
Calcium Flux as a % of flux with WT DRD2 (100), ONC201 100 μM [20]: 122%
Calcium Flux as a % of flux with WT DRD2 (100), ONC201 250 μM [20]: 89%
Calcium Flux as a % of flux with WT DRD2 (100), ONC201 100 μM [21]: 63%
Calcium Flux as a % of flux with WT DRD2 (100), ONC201 250 μM [21]: 20%
Calcium Flux as a % of flux with WT DRD2 (100), ONC201 100 μM [22]: 67%
Calcium Flux as a % of flux with WT DRD2 (100), ONC201 250 μM [22]: 28%
Calcium Flux as a % of flux with WT DRD2 (100), ONC201 100 μM [23]: 79%
Calcium Flux as a % of flux with WT DRD2 (100), ONC201 250 μM [23]: 22%
Calcium Flux as a % of flux with WT DRD2 (100), ONC201 100 μM [24]: 94%
Calcium Flux as a % of flux with WT DRD2 (100), ONC201 250 μM [24]: 58%
Calcium Flux as a % of flux with WT DRD2 (100), ONC201 100 μM [25]: 85%
Calcium Flux as a % of flux with WT DRD2 (100), ONC201 250 μM [25]: 11%
viability at 5000 µg/mL [26]: < 25%
viability at 72 h [27]: ≥ 75%
inhibition at 100 µM [28]: > 95%

Compound: O=C1C2=C(CCN(Cc3ccccc3)C2)N2CCN=C2N1Cc1ccc(F)c(F)c1 [ONC213]
Relative Potency* [29]: A (A Indicates a potency increase of >2-fold of ONC201)
in vitro toxicity to normal cells [30]: reduced compared to ONC212
NOAEL [31]: 75 mg/kg
GPCR activity, DRD2 [4]: DRD2/3 inhibitor; also recorded: more than ONC201 but less than ONC206
GPCR activity, DRD3 [32]: DRD2/3 inhibitor; also recorded: more than ONC201 but less than ONC206
GPCR activity, GPR132 [33]: less than ONC212; also recorded: GPR132/91 agonist
GPCR activity, GPR91 [34]: GPR132/91 agonist
MIC ([7]; ATCC29213, wild type Staphylococcus aureus (ATCC 29213), read-out: MIC): 25 µg/mL (≈ 61.2 µM)
MIC90 ([7]; Staphylococcus aureus, ATCC29213, ATCC 29213, 24 hours, read-out: MIC90): 12.5 µg/mL (≈ 30.6 µM)
MIC ([7]; Staphylococcus aureus, ATCC29213, ATCC 29213, 24 hours, read-out: MIC95): 12.5 µg/mL (≈ 30.6 µM)
MIC99 ([7]; Staphylococcus aureus, ATCC29213, ATCC 29213, 24 hours, read-out: MIC99): 25 µg/mL (≈ 61.2 µM)
MIC ([7]; Staphylococcus aureus, ATCC29213, ATCC 29213, 24 hours, read-out: MIC, Visual): 25 µg/mL (≈ 61.2 µM)
MIC ([8]; ATCC33591, Staphylococcus aureus (ATCC 33591), methicillin resistant, read-out: MIC): 3.13 µg/mL (≈ 7.66 µM)
MIC90 ([8]; Staphylococcus aureus, ATCC33591, ATCC 33591, 24 hours, read-out: MIC90): 3.13 µg/mL (≈ 7.66 µM)
MIC ([8]; Staphylococcus aureus, ATCC33591, ATCC 33591, 24 hours, read-out: MIC95): 6.25 µg/mL (≈ 15.3 µM)
MIC99 ([8]; Staphylococcus aureus, ATCC33591, ATCC 33591, 24 hours, read-out: MIC99): 100 µg/mL (≈ 245 µM)
MIC ([8]; Staphylococcus aureus, ATCC33591, ATCC 33591, 24 hours, read-out: MIC, Visual): 3.12 µg/mL (≈ 7.65 µM)
MIC90 ([9]; ATCC700699, ATCC 700699 (48 hours), read-out: MIC90): 6.25 µg/mL (≈ 15.3 µM)
MIC ([9]; ATCC700699, ATCC 700699 (48 hours), read-out: MIC95): 12.5 µg/mL (≈ 30.6 µM)
MIC99 ([9]; ATCC700699, ATCC 700699 (48 hours), read-out: MIC99): 12.5 µg/mL (≈ 30.6 µM)
MIC ([9]; ATCC700699, ATCC 700699 (48 hours), read-out: MIC, Visual): 12.5 µg/mL (≈ 30.6 µM)

GPCR activity, DRD5 ([6]; arrestin recruitment reporter assay): antagonist activity
GPCR activity, CXCR7 [35]: CXCR7 agonist activity
Compound: O=C1C2=C(CCN(Cc3ccc(Cl)c(Cl)c3)C2)N2CCN=C2N1Cc1ccc(C(F)(F)F)cc1 [ONC234]
Relative Potency* [29]: A (A Indicates a potency increase of >2-fold of ONC201)
GPCR activity, DRD2 [4]: antagonist activity
GPCR profile / selectivity [36]: broad spectrum and potent GPCR targeting small molecule
